Source: patent US5001118A, “Method for preventing senescence and increasing bone mass” (priority 1986, dated 1991)

Tests used:
[1] = system: ICR type mice; assay: Biochemical inspection of blood serum, daily oral administration; assay type: in vivo, mouse (ICR type); set-up: key: .dwnarw.: Decrease below control; →: No difference from control; .uparw.: Increase above control
Excerpt: The results are compared below with respect to the following items with those obtained of the male- and female-groups using only the solvent without the present substance.

[2] = system: ICR type mice; assay: Weight of internal organs, daily oral administration; assay type: in vivo, mouse (ICR type); set-up: key: .dwnarw.: Decrease below control; →: No difference from control; .uparw.: Increase above control
Description: Solutions obtained by dissolving the present substance, 24R,25-(OH)2 -D3 in a prescribed concentration in triglyceride of a fatty acid of 8 to 10 carbon atoms containing 1% of ethanol were administered respectively, orally, forcedly and daily to three male-groups and three female-groups of ICR type mice 5 weeks old at dosages of 10, 100, and 1,000 μg/kg.day. The results are compared below with respect to the following items with those obtained of the male- and female-groups using only the solvent without the present substance.

C=C1CC[C@H](O)C/C1=C/C=C1\CCC[C@]2(C)[C@@H]([C@H](C)CC[C@@H](O)C(C)(C)O)CC[C@@H]12 [24R,25-(OH)2 -D3]
A/G ([1]; female, 10 μg/kg): →
ALP ([1]; female, 10 μg/kg): →
Alb ([1]; female, 10 μg/kg): →
BUN ([1]; female, 10 μg/kg): →
Ca ([1]; female, 10 μg/kg): →
GOT ([1]; female, 10 μg/kg): →
GPT ([1]; female, 10 μg/kg): →
Glu ([1]; female, 10 μg/kg): →
I-P ([1]; female, 10 μg/kg): →
LDH ([1]; female, 10 μg/kg): →
T-Bil ([1]; female, 10 μg/kg): →
T-CHO ([1]; female, 10 μg/kg): →
T-P ([1]; female, 10 μg/kg): →
A/G ([1]; female, 100 μg/kg): →
ALP ([1]; female, 100 μg/kg): →
Alb ([1]; female, 100 μg/kg): →
BUN ([1]; female, 100 μg/kg): →
Ca ([1]; female, 100 μg/kg): →
GOT ([1]; female, 100 μg/kg): →
GPT ([1]; female, 100 μg/kg): →
Glu ([1]; female, 100 μg/kg): →
I-P ([1]; female, 100 μg/kg): →
LDH ([1]; female, 100 μg/kg): →
T-Bil ([1]; female, 100 μg/kg): →
T-CHO ([1]; female, 100 μg/kg): →
T-P ([1]; female, 100 μg/kg): →
A/G ([1]; female, 1000 μg/kg): →
ALP ([1]; female, 1000 μg/kg): →
Alb ([1]; female, 1000 μg/kg): →
BUN ([1]; female, 1000 μg/kg): →
Ca ([1]; female, 1000 μg/kg): →
GOT ([1]; female, 1000 μg/kg): →
GPT ([1]; female, 1000 μg/kg): →
Glu ([1]; female, 1000 μg/kg): →
I-P ([1]; female, 1000 μg/kg): →
LDH ([1]; female, 1000 μg/kg): →
T-Bil ([1]; female, 1000 μg/kg): →
T-CHO ([1]; female, 1000 μg/kg): →
T-P ([1]; female, 1000 μg/kg): →
A/G ([1]; male, 10 μg/kg): →
ALP ([1]; male, 10 μg/kg): →
Alb ([1]; male, 10 μg/kg): →
BUN ([1]; male, 10 μg/kg): →
Ca ([1]; male, 10 μg/kg): →
GOT ([1]; male, 10 μg/kg): →
GPT ([1]; male, 10 μg/kg): →
Glu ([1]; male, 10 μg/kg): →
I-P ([1]; male, 10 μg/kg): →
LDH ([1]; male, 10 μg/kg): →
T-Bil ([1]; male, 10 μg/kg): →
T-CHO ([1]; male, 10 μg/kg): →
T-P ([1]; male, 10 μg/kg): →
A/G ([1]; male, 100 μg/kg): →
ALP ([1]; male, 100 μg/kg): →
Alb ([1]; male, 100 μg/kg): →
BUN ([1]; male, 100 μg/kg): →
Ca ([1]; male, 100 μg/kg): →
GOT ([1]; male, 100 μg/kg): →
GPT ([1]; male, 100 μg/kg): →
Glu ([1]; male, 100 μg/kg): →
I-P ([1]; male, 100 μg/kg): →
LDH ([1]; male, 100 μg/kg): →
T-Bil ([1]; male, 100 μg/kg): →
T-CHO ([1]; male, 100 μg/kg): →
T-P ([1]; male, 100 μg/kg): →
A/G ([1]; male, 1000 μg/kg): →
ALP ([1]; male, 1000 μg/kg): →
Alb ([1]; male, 1000 μg/kg): →
BUN ([1]; male, 1000 μg/kg): .dwnarw.
Ca ([1]; male, 1000 μg/kg): →
GOT ([1]; male, 1000 μg/kg): →
GPT ([1]; male, 1000 μg/kg): →
Glu ([1]; male, 1000 μg/kg): .dwnarw.
I-P ([1]; male, 1000 μg/kg): →
LDH ([1]; male, 1000 μg/kg): .dwnarw.
T-Bil ([1]; male, 1000 μg/kg): .dwnarw.
T-CHO ([1]; male, 1000 μg/kg): →
T-P ([1]; male, 1000 μg/kg): →
Weight of adrenal gland ([2]; female, 10 μg/kg): →
Weight of brain ([2]; female, 10 μg/kg): →
Weight of heart ([2]; female, 10 μg/kg): →
Weight of kidney ([2]; female, 10 μg/kg): →
Weight of liver ([2]; female, 10 μg/kg): →
Weight of lung ([2]; female, 10 μg/kg): →
Weight of ovary ([2]; female, 10 μg/kg): →
Weight of pituitary gland ([2]; female, 10 μg/kg): →
Weight of spleen ([2]; female, 10 μg/kg): →
Weight of thymus gland ([2]; female, 10 μg/kg): →
Weight of uterus ([2]; female, 10 μg/kg): →
Weight of adrenal gland ([2]; female, 100 μg/kg): →
Weight of brain ([2]; female, 100 μg/kg): →
Weight of heart ([2]; female, 100 μg/kg): →
Weight of kidney ([2]; female, 100 μg/kg): →
Weight of liver ([2]; female, 100 μg/kg): →
Weight of lung ([2]; female, 100 μg/kg): →
Weight of ovary ([2]; female, 100 μg/kg): →
Weight of pituitary gland ([2]; female, 100 μg/kg): →
Weight of spleen ([2]; female, 100 μg/kg): →
Weight of thymus gland ([2]; female, 100 μg/kg): →
Weight of uterus ([2]; female, 100 μg/kg): →
Weight of adrenal gland ([2]; female, 1000 μg/kg): →
Weight of brain ([2]; female, 1000 μg/kg): →
Weight of heart ([2]; female, 1000 μg/kg): →
Weight of kidney ([2]; female, 1000 μg/kg): →
Weight of liver ([2]; female, 1000 μg/kg): →
Weight of lung ([2]; female, 1000 μg/kg): →
Weight of ovary ([2]; female, 1000 μg/kg): →
Weight of pituitary gland ([2]; female, 1000 μg/kg): →
Weight of spleen ([2]; female, 1000 μg/kg): →
Weight of thymus gland ([2]; female, 1000 μg/kg): →
Weight of uterus ([2]; female, 1000 μg/kg): →
Weight of adrenal gland ([2]; male, 10 μg/kg): →
Weight of brain ([2]; male, 10 μg/kg): →
Weight of heart ([2]; male, 10 μg/kg): →
Weight of kidney ([2]; male, 10 μg/kg): →
Weight of liver ([2]; male, 10 μg/kg): →
Weight of lung ([2]; male, 10 μg/kg): →
Weight of pituitary gland ([2]; male, 10 μg/kg): →
Weight of spleen ([2]; male, 10 μg/kg): →
Weight of testis ([2]; male, 10 μg/kg): →
Weight of thymus gland ([2]; male, 10 μg/kg): →
Weight of adrenal gland ([2]; male, 100 μg/kg): →
Weight of brain ([2]; male, 100 μg/kg): →
Weight of heart ([2]; male, 100 μg/kg): →
Weight of kidney ([2]; male, 100 μg/kg): →
Weight of liver ([2]; male, 100 μg/kg): →
Weight of lung ([2]; male, 100 μg/kg): →
Weight of pituitary gland ([2]; male, 100 μg/kg): →
Weight of spleen ([2]; male, 100 μg/kg): →
Weight of testis ([2]; male, 100 μg/kg): →
Weight of thymus gland ([2]; male, 100 μg/kg): →
Weight of adrenal gland ([2]; male, 1000 μg/kg): →
Weight of brain ([2]; male, 1000 μg/kg): →
Weight of heart ([2]; male, 1000 μg/kg): →
Weight of kidney ([2]; male, 1000 μg/kg): →
Weight of liver ([2]; male, 1000 μg/kg): →
Weight of lung ([2]; male, 1000 μg/kg): →
Weight of pituitary gland ([2]; male, 1000 μg/kg): →
Weight of spleen ([2]; male, 1000 μg/kg): →
Weight of testis ([2]; male, 1000 μg/kg): →
Weight of thymus gland ([2]; male, 1000 μg/kg): →
